Data on 13 compounds can be found in ChEMBL document CHEMBL2375303, “Molecular determinants for nuclear receptors selectivity: chemometric analysis, dockings and site-directed mutagenesis of dual peroxisome proliferator-activated receptors α/γ agonists” (Eur J Med Chem, 2013).

What all share (assay type): cell-based
The target of assay [1] is T1, Peroxisome proliferator-activated receptor alpha (Homo sapiens, UniProt Q07869).
T1 sequence (Q07869 whole entry): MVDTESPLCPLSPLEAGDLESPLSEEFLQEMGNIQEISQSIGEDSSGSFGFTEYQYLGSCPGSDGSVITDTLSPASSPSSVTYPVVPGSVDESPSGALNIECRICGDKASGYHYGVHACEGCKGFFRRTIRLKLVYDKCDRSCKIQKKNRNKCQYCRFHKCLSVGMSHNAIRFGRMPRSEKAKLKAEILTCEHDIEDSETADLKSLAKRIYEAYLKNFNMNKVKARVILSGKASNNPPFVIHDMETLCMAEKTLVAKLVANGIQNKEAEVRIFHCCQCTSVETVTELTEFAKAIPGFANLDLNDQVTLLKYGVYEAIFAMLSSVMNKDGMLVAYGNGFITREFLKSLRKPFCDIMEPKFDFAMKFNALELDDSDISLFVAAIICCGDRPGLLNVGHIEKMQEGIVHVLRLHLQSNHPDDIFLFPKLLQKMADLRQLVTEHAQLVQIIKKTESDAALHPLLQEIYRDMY
Briefly: Agonist activity at GAL4-fused PPARalpha (unknown origin) expressed in human HepG2 cells by transactivation assay.

Assay [2] addresses T2, Peroxisome proliferator-activated receptor gamma (Homo sapiens, UniProt P37231).
T2 sequence (P37231 whole entry): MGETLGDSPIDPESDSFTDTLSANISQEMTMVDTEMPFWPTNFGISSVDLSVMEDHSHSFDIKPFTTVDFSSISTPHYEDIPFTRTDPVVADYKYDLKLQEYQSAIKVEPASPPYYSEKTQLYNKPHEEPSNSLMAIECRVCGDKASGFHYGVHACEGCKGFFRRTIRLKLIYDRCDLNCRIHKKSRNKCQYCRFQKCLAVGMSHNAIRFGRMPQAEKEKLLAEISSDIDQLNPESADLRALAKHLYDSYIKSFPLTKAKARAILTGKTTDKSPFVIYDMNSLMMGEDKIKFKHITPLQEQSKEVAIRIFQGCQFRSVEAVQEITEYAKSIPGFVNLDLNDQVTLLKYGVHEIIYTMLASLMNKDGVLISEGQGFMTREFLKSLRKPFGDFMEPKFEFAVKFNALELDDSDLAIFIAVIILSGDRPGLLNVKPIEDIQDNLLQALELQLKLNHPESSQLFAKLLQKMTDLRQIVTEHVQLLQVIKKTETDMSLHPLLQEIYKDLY
The experiment in a line: Agonist activity at GAL4-fused PPARgamma (unknown origin) expressed in human HepG2 cells by transactivation assay.

Assay [3] is described as follows: Agonist activity at GAL4-fused PPARgamma M463A mutant (unknown origin) expressed in human HepG2 cells by transactivation assay.
The target of assay [4] is Peroxisome proliferator-activated receptor alpha (Homo sapiens, UniProt Q07869, A454M). Briefly: Agonist activity at GAL4-fused PPARalpha A454M mutant (unknown origin) expressed in human HepG2 cells by transactivation assay.
Peroxisome proliferator-activated receptor alpha (Homo sapiens, UniProt Q07869, A454M), sequence (Q07869 whole entry A454M, the tested form may be a part): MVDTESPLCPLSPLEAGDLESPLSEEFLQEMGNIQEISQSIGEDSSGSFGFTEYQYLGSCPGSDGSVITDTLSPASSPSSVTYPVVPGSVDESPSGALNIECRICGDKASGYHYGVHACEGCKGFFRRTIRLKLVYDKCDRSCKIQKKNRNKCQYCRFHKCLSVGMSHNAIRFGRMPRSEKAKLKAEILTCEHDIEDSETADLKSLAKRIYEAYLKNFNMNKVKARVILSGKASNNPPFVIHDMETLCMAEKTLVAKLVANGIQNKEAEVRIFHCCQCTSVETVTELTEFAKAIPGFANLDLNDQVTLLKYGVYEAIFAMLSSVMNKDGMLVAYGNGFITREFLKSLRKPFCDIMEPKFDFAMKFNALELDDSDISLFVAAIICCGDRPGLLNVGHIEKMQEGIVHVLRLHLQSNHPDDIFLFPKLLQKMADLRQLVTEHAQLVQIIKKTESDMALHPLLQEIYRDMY

Turning to `O=C(O)[C@H](CCOc1ccccc1)Oc1ccc(Cl)cc1`, the EC50 in assay [1] (read-out: pEC50 (converted)) is 3020 nM; in assay [2] (read-out: pEC50 (converted)), 1260 nM.

Turning to `CN(CCOc1ccc(CC2SC(=O)NC2=O)cc1)c1ccccn1` (stereo unspecified) [ROSIGLITAZONE], the EC50 in assay [3] stood at 2 nM.

In the case of `O=C(O)[C@H](CCCc1ccccc1)Oc1ccc(Cl)cc1`, the EC50 in assay [1] (read-out: pEC50 (converted)) is 589 nM; in assay [2] (read-out: pEC50 (converted)), 912 nM.

As to `O=C(O)[C@H](Cc1ccc(Oc2ccccc2)cc1)Oc1ccc(Cl)cc1`, the EC50 in assay [1] (read-out: EC50) is 3900 nM; in assay [1] (read-out: pEC50 (converted)) it was 871 nM; in assay [4], 900 nM; in assay [3] it was 340 nM; in assay [2] (read-out: EC50), 320 nM; in assay [2] (read-out: pEC50 (converted)), 26.9 nM.

For `O=C(O)[C@H](Cc1ccc(-c2cccs2)cc1)Oc1ccc(Cl)cc1`, the figures for the EC50 in assay [1] (read-out: pEC50 (converted)) and in assay [2] (read-out: pEC50 (converted)) were 589 nM and 64.6 nM, respectively.

As to `O=C(O)[C@H](Cc1ccccc1)Oc1ccc(Cc2ccccc2)cc1`, the EC50 in assay [1] (read-out: EC50) amounted to 40 nM; in assay [4] it was 400 nM; in assay [3], 470 nM; in assay [2] (read-out: EC50), 600 nM.

For the compound `O=C(O)[C@H](COc1ccccc1)Oc1ccc(Cl)cc1`, the EC50 in assay [1] (read-out: pEC50 (converted)) was 2510 nM; in assay [2] (read-out: pEC50 (converted)), 1660 nM.

Take `O=C(O)[C@H](Cc1ccccc1)Oc1ccc(Oc2ccccc2)cc1`: the figures for the EC50 in assay [1] (read-out: pEC50 (converted)) and in assay [2] (read-out: pEC50 (converted)) were 891 nM and 1580 nM, respectively.

In the case of `O=C(O)[C@H](Cc1ccccc1)Oc1ccc(-c2ccc(Cl)cc2)cc1`, the values for the EC50 in assay [1] (read-out: pEC50 (converted)) and in assay [2] (read-out: pEC50 (converted)) were 3890 nM and 8910 nM, respectively.

On to `O=C(O)[C@H](Cc1ccc(C(F)(F)F)cc1)Oc1ccc(Cl)cc1`, for which the EC50 in assay [1] (read-out: pEC50 (converted)) is 3630 nM; in assay [2] (read-out: pEC50 (converted)), 417 nM.

As to `O=C(O)[C@H](Cc1ccc(-c2ccccc2)cc1)Oc1ccc(Cl)cc1`, the EC50 was 1120 nM in assay [1] (read-out: pEC50 (converted)) and 49 nM in assay [2] (read-out: pEC50 (converted)).

As to `O=C(O)[C@H](CCCc1ccc(Cl)cc1)Oc1ccc(Cl)cc1`, the EC50 was 631 nM in assay [1] (read-out: pEC50 (converted)) and 316 nM in assay [2] (read-out: pEC50 (converted)).

On to `O=C(O)[C@H](CCc1ccccc1)Oc1ccc(Cl)cc1`, for which the EC50 in assay [1] (read-out: pEC50 (converted)) is 2400 nM; in assay [2] (read-out: pEC50 (converted)), 7080 nM.
